In patent publication US9408850B2, “Substituted indazole derivatives active as kinase inhibitors” (NERVIANO MEDICAL SCIENCES S.R.L., priority 2011, dated 2016) one finds IC50 data, which are given here for two compounds.

For test [1], the target named is FLT3 cytoplasmic domain (GST fused protein) (Homo sapiens (Human), UniProt P36888). Put plainly: Biochemical assay for inhibitors of FLT3 kinase activity. The conditions noted are these: 2 nM pre activated enzyme, 254 microM ATP, 60 minutes at r.t. On the procedure: FLT3 cytoplasmic domain (aa 564-993end of the 993 aminoacid long full length sequence, accession number P36888 of UniProtKB/Swiss-Prot. database) was amplified by PCR starting from a testis cDNA library and then cloned into pVL vector for expression in insect cells through the baculovirus system. The GST-FLT3 cytoplasmic domain has been expressed in Sf21 cells infected for 72 hours at 27° C. The recombinant protein has been purified by affinity on GSH-sepharose and eluted with glutathione. A further purification step has been performed on heparine sepharose. […] General Principle-A specific peptidic substrate was trans-phosphorylated by the kinase in the presence of ATP traced with 33Pγ-ATP. At the end of the phosphorylation reaction, the not reacted ATP, cold and radioactive, was captured by an excess of dowex ion exchange resin that eventually settled by gravity to the bottom of the reaction plate. The supernatant was subsequently withdrawn and transferred into a counting plate that was then evaluated by β-counting. • ii. Dowex resin preparation-500 g of wet resin (SIGMA, custom prepared resin DOWEX 1×8 200-400 mesh, 2.5 Kg) were weighed out and diluted to 2 L in 150 mM sodium formate, pH 3.00. The resin was allowed to settle down overnight and then the supernatant was discarded. After three washes as above over a couple of days, the resin was allowed to settle and two volumes (with respect to the resin volume) were added of 150 mM sodium formate buffer. Biochemical Assay for Inhibitors of FLT3 Kinase Activity • i. Enzyme-The assay was performed using FLT3 cytoplasmic domain product and purified in house as GST fused protein. […] NO: 1). The peptide was purchased from American Peptide Company (Sunnyvale, Calif.). Biochemical Assay for Inhibitors of KIT Kinase Activity • i. Enzyme-The assay has been performed using KIT cytoplasmic domain product and purified in house as GST fused protein. […] NO: 2). The peptide was purchased from American Peptide Company (Sunnyvale, Calif.). Compound Testing • i. […] An automated station for serial dilutions (Biomek FX, Beckman) was used for producing 1:3 dilutions in 100% DMSO, from line A1 to A10, and for all the compounds in the column. […] The following dispensation into the plates plus 3 cycles of mixing, done by the robot itself, started the kinase reaction. At this point, the correct concentrations were restored for all the reagents. The robot incubated the plates for 60 minutes at r.t., and then stopped the reaction by pipetting 60 microL of dowex resin suspension into the reaction mix. In order to avoid tip clogging, wide bore tips were used to dispense the resin suspension. Three cycles of mixing were done immediately after the addition of the resin. Another mixing cycle was performed after all the plates were stopped, this time using normal tips: the plates were then allowed to rest for about one hour in order to allow resin sedimentation. […] Data Fitting-Data were analyzed by an internally customized version of the SW package “Assay Explorer” that provided sigmoidal fitting of the ten-dilutions curves for IC50 determination in the secondary assays/hit confirmation routines. Cell-Based Assays for Inhibitors of FLT3 Kinase Activity In vitro Cell Proliferation Assay for Inhibitors of FLT3 Kinase Activity

Test [2] deals with KIT cytoplasmic domain (GST fused protein) (Homo sapiens (Human), UniProt P10721). Put plainly: Biochemical assay for inhibitors of KIT kinase activity. The conditions noted are these: 4 nM pre activated enzyme, 4.4 microM ATP, 60 minutes at r.t. The procedure: KIT cytoplasmic domain (aa 544-976end of the 976 aminoacid long full length sequence, accession number P10721 of UniProtKB/Swiss-Prot database) was cloned into pVL vector for expression in insect cells through the baculovirus system. The GST-KIT cytoplasmic domain has been expressed in Sf21 cells infected for 66 hrs at 27° C. The recombinant protein has been purified by affinity on GSH-sepharose and eluted with glutathione. […] General Principle-A specific peptidic substrate was trans-phosphorylated by the kinase in the presence of ATP traced with 33Pγ-ATP. At the end of the phosphorylation reaction, the not reacted ATP, cold and radioactive, was captured by an excess of dowex ion exchange resin that eventually settled by gravity to the bottom of the reaction plate. The supernatant was subsequently withdrawn and transferred into a counting plate that was then evaluated by β-counting. • ii. Dowex resin preparation-500 g of wet resin (SIGMA, custom prepared resin DOWEX 1×8 200-400 mesh, 2.5 Kg) were weighed out and diluted to 2 L in 150 mM sodium formate, pH 3.00. The resin was allowed to settle down overnight and then the supernatant was discarded. After three washes as above over a couple of days, the resin was allowed to settle and two volumes (with respect to the resin volume) were added of 150 mM sodium formate buffer. Biochemical Assay for Inhibitors of FLT3 Kinase Activity • i. Enzyme-The assay was performed using FLT3 cytoplasmic domain product and purified in house as GST fused protein. […] The peptide was purchased from American Peptide Company (Sunnyvale, Calif.). Biochemical Assay for Inhibitors of KIT Kinase Activity • i. Enzyme-The assay has been performed using KIT cytoplasmic domain product and purified in house as GST fused protein. […] NO: 2). The peptide was purchased from American Peptide Company (Sunnyvale, Calif.). Compound Testing • i. […] An automated station for serial dilutions (Biomek FX, Beckman) was used for producing 1:3 dilutions in 100% DMSO, from line A1 to A10, and for all the compounds in the column. […] The following dispensation into the plates plus 3 cycles of mixing, done by the robot itself, started the kinase reaction. At this point, the correct concentrations were restored for all the reagents. The robot incubated the plates for 60 minutes at r.t., and then stopped the reaction by pipetting 60 microL of dowex resin suspension into the reaction mix. In order to avoid tip clogging, wide bore tips were used to dispense the resin suspension. Three cycles of mixing were done immediately after the addition of the resin. Another mixing cycle was performed after all the plates were stopped, this time using normal tips: the plates were then allowed to rest for about one hour in order to allow resin sedimentation. […] Data Fitting-Data were analyzed by an internally customized version of the SW package “Assay Explorer” that provided sigmoidal fitting of the ten-dilutions curves for IC50 determination in the secondary assays/hit confirmation routines. Cell-Based Assays for Inhibitors of FLT3 Kinase Activity In vitro Cell Proliferation Assay for Inhibitors of FLT3 Kinase Activity

Test [3] relates to MOLM-13 cells, bearing a FLT3-ITD mutation. Put plainly: In vitro cell proliferation assay (CellTiter-Glo), MOLM-13. It is filed as cell-based. The conditions noted are these: Homo sapiens, MOLM-13, 72 h. On the procedure:
(§1) The human acute leukemia MOLM-13 AND MV-4-11 cells, bearing a FLT3-ITD mutation, were seeded (5000 cells/well) in white 384 well-plates in complete medium (RPMI 1640 plus 10% Fetal bovine serum) and treated with compounds dissolved in 0.1% DMSO, 24 h after seeding. The cells were incubated at 37° C. and 5% CO2 and after 72 h the plates were processed using CellTiter-Glo assay (Promega) following the manufacturer's instruction.
(§2) CellTiter-Glo is a homogenous method based on the quantification of the ATP present, an indicator of metabolitically active cells. ATP was quantified using a system based on luciferase and D-luciferin resultant into light generation. The luminescent signal was proportional to the number of cells present in culture.
(§3) Briefly, 25 microL/well reagent solution were added to each well and, after 5 minutes shaking, microplates were read by Envision (PerkinElmer) luminometer. Inhibitory activity was evaluated comparing treated versus control data using Symyx Assay Explorer (Symyx Technologies Inc.) program. IC50 was calculated using sigmoidal interpolation curve.

Test [4] has as its system MV-4-11 cells, bearing a FLT3-ITD mutation. Put plainly: In vitro cell proliferation assay (CellTiter-Glo), MV-4-11. The conditions noted are these: Homo sapiens, MV4-11, MV-4-11, 72 h. It is filed as cell-based. The procedure: as §1, §2, §3

Sequence of FLT3 cytoplasmic domain (GST fused protein) (P36888 564-993): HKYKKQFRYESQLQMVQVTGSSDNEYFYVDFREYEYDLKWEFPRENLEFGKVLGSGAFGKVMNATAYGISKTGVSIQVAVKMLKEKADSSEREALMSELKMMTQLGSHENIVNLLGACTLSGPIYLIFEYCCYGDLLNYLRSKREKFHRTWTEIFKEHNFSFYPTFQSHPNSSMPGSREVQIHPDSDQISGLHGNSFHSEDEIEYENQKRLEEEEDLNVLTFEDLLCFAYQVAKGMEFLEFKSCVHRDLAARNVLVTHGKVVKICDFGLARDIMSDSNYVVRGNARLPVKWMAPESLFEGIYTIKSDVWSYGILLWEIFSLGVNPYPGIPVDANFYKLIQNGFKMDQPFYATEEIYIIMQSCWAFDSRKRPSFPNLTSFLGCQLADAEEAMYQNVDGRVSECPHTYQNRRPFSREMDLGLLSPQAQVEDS
Sequence of KIT cytoplasmic domain (GST fused protein) (P10721 544-976): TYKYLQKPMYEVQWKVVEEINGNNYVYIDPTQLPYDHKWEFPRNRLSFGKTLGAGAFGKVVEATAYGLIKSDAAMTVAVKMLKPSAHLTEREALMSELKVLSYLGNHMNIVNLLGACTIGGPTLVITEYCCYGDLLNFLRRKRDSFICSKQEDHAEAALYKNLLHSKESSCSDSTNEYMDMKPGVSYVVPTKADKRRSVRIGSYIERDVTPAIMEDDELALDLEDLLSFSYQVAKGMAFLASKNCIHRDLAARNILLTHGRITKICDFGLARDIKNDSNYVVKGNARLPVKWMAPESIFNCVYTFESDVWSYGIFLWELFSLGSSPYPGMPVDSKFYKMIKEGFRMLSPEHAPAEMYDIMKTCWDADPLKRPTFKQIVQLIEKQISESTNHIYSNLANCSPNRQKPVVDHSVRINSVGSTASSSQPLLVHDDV

For `CN(c1ccc(C(=O)Nc2n[nH]c3cc(OCCOCc4ccccc4)ccc23)cc1)C1CC[N+](C)([O-])CC1` (centres unmarked) [Cpd. 41, N-[6-(2-Benzyloxy-ethoxy)-1H-indazol-3-yl]-4-[methyl-(1-methyl-1-oxy-piperidin-4-yl)-amino]-benzamide], the IC50 in test [1] was 52 nM; in test [2], 180 nM; in test [3], below 50 nM; in test [4] it was below 50 nM.
In the case of `CN1CCN(c2ccc(C(=O)Nc3n[nH]c4cc(OCCOCc5ccncc5)ccc34)cc2)CC1` [Cpd. 35, 4-(4-Methyl-piperazin-1-yl)-N-{6-[2-(pyridin-4-ylmethoxy)-ethoxy]-1H-indazol-3-yl}-benzamide], the IC50 in test [1] was 1180 nM; in test [2], 2370 nM; in test [3], below 50 nM; in test [4], below 50 nM.
